Results on 5 molecules are retold here after patent publication US5605929A, “Methods and compositions for inhibiting 5α-reductase activity” (priority 1995, dated 1997).

Structures are written as SMILES. Read-outs that look alike come from different tables or passages of the source.

The term inhibition denotes the percentage by which the read-out fell short of the control. Broadly, the IC50 is the concentration that gives 50% inhibition.

The test system of assay [1] is 5α-reductase. The settings on record: cited from earlier work.
For assay [2], the system named is forehead sebum production. The experiment in a line: Forehead sebum production (L/R ratio), human male. The class given is in vivo. On the procedure:
A volunteer was used to test and analyze sebum production from the forehead region. The forehead was washed thoroughly by soap twice and cleaned by 70% isopropyl alcohol twice. Sebum production was measured 30 to 60 minutes later by a sebum meter (Courage/Khazaka Electronic GmbH, Germany). The sebum meter tape probe (7 mm×8 mm) covered 56 mm^2 area in each measurement. Ten measurements were made within the 4 cm square area (16 cm^2) located at the middle of the left or right side forehead between the eyebrow and the hair line.
The sebum meter detected the difference in the transparency of the tape before and after the tape was placed on the forehead for 30 seconds and expressed the difference in an arbitrary number (S-value) between 0 to 300 (or higher). S-values of sebum accumulated on the foreheads of men are usually 200 to 300.

Assay [3] has as its system 5α-reductase. Briefly: Catechin gallates in rat liver microsomes or cells expressing type 1 or type 2 5α-reductase. Particulars: 40 μM. The assay is classed as biochemical.
Assay [4] addresses T1, human 5α-reductase isozyme type 1 (Homo sapiens, UniProt P18405).
T1 construct: expressed in transfected cells; host or cells: Rat-1A cells infected with pMV7 retrovirus; microsomes of these cells
T1 sequence (P18405 1-259): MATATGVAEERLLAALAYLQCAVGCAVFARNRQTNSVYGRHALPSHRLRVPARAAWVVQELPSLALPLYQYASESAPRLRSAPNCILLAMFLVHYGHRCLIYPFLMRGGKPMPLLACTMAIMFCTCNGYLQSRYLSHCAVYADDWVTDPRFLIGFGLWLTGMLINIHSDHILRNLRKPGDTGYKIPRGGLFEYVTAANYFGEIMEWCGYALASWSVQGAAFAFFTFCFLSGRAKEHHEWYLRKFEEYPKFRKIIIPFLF
Briefly: 4-[14C]testosterone reduction, human type 1 isozyme. The class given is biochemical. The settings on record: for inhibition at 1 µM / inhibition at 3 µM / inhibition at 10 µM / inhibition at 30 µM: read-out: % Inhibition of 5α-reduction; for activity on type 1 isozyme: enzymatic assay. The source says:
(§1) The cDNAs for the human type 1 and 2 5α-reductases were isolated from human prostate λZAP II™ cDNA libraries using the published sequence of the 5α-reductases, PCR™ and standard library screening techniques (Sambrook et al., 1989). The type 1 and 2 cDNAs correspond to nucleotides 31-870 and 28-829, respectively, of the published sequences for these 5α-reductases (Anderson and Russell, 1990; Anderson et al., 1991). The type 1 and 2 cDNAs were subcloned into the retroviral expression vector pMV7 (Kirschmeier et al., 1988) and high titer stocks of virus containing the type 1 and 2 cDNAs were generated using the packaging cells BOSC 23 293 (Kirschmeier et al., 1988). Rat.-1A cells (Pear et al., 1993) were infected with virus (Topp, 1981) and cells containing integrated retrovirus were selected for G418-SO4 resistance, (Brown and Scott, 1987).
(§2) Microsomes were prepared as described previously (Liang and Liao, 1992) from the liver of adult Sprague-Dawley female rats or Rat-1A cells expressing a specific type of human 5α-reductase. […] The data presented was based on the rate of reaction.
(§3) The reaction was started by the addition of 25 μl of microsomes (25 μg protein). The mixture was incubated at 37° for 30-60 min and stopped by addition of 0.5 ml of ethyl acetate and mixing for 1 min. The organic solvent extract was removed under vacuum.

Assay [5] has as its target T2, 5α-Reductase of Rat Liver Microsomes (Rattus norvegicus, UniProt P24008).
T2 sequence (P24008 1-259): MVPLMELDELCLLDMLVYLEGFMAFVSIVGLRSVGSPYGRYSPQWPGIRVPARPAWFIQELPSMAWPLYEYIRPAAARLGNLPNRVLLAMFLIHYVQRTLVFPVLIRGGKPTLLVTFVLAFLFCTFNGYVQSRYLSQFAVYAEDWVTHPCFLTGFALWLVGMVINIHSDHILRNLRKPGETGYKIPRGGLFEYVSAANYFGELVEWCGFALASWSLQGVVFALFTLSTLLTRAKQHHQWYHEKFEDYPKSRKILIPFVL
The experiment in a line: [3H]4-MA binding assay, rat liver microsomes (tea catechins). Particulars: read-out: % Inhibition of [^3 H]4-MA binding. As for the experimental part:
Microsomes were prepared as described previously (Liang and Liao, 1992) from the liver of adult Sprague-Dawley female rats or Rat-1A cells expressing a specific type of human 5α-reductase. Each study was carried out in duplicate or triplicate which were usually within 10% of each other. Several studies were preformed to assure that the results shown are representative. The data presented was based on the rate of reaction.
(§4) [^3 H]4-MA binding assay were described in detail previously (Liang and Liao, 1992; Liang et al., 1983). […] The reaction was started by the addition of 25 μl of microsomes (25 μg protein). After 30-60 min incubation at 0° C., the [^3 H]4-MA bound to microsomes was collected on a Whatman GF/F glass fiber, washed and radioactivity determined (Liang and Liao, 1992).

The target of assay [6] is T3, human 5α-reductase isozyme type 2 (Homo sapiens, UniProt P31213).
T3 construct: expressed in transfected cells; host or cells: Rat-1A cells infected with pMV7 retrovirus; microsomes of these cells
T3 sequence (P31213 1-254): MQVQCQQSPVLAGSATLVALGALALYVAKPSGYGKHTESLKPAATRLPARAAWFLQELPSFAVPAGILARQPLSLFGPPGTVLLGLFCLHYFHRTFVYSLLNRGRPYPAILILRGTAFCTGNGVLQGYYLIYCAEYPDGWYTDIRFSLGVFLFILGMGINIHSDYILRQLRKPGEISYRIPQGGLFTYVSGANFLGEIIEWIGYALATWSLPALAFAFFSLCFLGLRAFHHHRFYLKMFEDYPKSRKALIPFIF
Briefly: 4-[14C]testosterone reduction, human type 2 isozyme. The class given is biochemical. The settings on record: for inhibition at 1 µM / inhibition at 3 µM / inhibition at 10 µM / inhibition at 30 µM / inhibition at 100 µM: read-out: % Inhibition of 5α-reduction; for activity on type 2 isozyme: enzymatic assay, concentrations below 30 μM for ECG/EGCG.
Description: as §1, §2, §3

The target of assay [7] is T1, human 5α-reductase isozyme type 1. The experiment in a line: [3H]4-MA binding, human type 1 isozyme expressed in Rat-1A cells. Particulars: read-out: % Inhibition of [^3 H]4-MA binding.
Description: as §1, §2, §4

Assay [8] concerns ventral prostate and preputial organ. Particulars: 5 mg ip daily, 14 days. The source says:
Male Sprague-Dawley rats, 60±5 g body weight, were used. Each group had 6 rats, and all were castrated.

The target of assay [9] is T3, human 5α-reductase isozyme type 2. The experiment in a line: [3H]4-MA binding, human type 2 isozyme expressed in Rat-1A cells. Particulars: read-out: % Inhibition of [^3 H]4-MA binding.
Description: as §1, §2, §4

For assay [10], the system named is androgen-dependent organs. The assay is classed as in vivo, rat. Particulars: up to 15 mg per day. As for the experimental part:
The control rats were injected with 0.3 ml of 30% ethanol.

For a further assay, the target named is Soybean lipoxygenase (Glycine max, UniProt P08170). The settings on record: cited from earlier work.
Soybean lipoxygenase, sequence (P08170 whole entry): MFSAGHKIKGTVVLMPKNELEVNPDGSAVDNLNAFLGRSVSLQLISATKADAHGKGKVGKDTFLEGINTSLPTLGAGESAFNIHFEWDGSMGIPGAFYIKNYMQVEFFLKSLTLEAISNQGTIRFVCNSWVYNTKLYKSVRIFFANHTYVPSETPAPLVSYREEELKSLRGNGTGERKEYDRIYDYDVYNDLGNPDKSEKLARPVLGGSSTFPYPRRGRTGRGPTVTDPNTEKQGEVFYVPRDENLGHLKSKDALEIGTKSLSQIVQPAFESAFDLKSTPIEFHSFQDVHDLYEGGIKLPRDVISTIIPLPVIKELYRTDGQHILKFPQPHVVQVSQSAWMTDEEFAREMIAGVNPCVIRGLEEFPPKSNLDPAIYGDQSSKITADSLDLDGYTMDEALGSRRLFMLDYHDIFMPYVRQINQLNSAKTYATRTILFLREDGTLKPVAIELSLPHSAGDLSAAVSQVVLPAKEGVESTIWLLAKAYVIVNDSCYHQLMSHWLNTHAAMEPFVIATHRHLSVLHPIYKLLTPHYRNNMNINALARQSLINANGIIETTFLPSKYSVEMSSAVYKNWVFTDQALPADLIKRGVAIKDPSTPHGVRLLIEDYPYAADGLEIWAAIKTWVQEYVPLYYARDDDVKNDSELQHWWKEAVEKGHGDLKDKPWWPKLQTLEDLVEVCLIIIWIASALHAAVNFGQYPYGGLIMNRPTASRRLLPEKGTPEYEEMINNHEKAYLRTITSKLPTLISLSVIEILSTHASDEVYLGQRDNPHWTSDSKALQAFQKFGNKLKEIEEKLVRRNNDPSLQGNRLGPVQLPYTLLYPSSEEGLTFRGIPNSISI

For `C[C@]12CC[C@H]3[C@@H](CCC4=CC(=O)CC[C@@]43C)[C@@H]1CC[C@@H]2C(=O)O` [4-androstane-3-one-17β-carboxylic acid], the “5α-reductase inhibition” value with 5α-reductase [1] is reported as “shown to inhibit 5α-reductase”.

For the molecule `C[C@]12CC[C@H]3[C@@H](CCC4C(=[N+]=[N-])C(=O)CC[C@@]43C)[C@@H]1CC[C@@H]2CCCO` (some centres unmarked) [4-diazo-21-hydroxymethyl-pregnane-3-one], the “5α-reductase inhibition” value with 5α-reductase [1] is on record as “shown to inhibit 5α-reductase”.

For the molecule `Oc1cc(O)c2c(c1)O[C@H](c1ccc(O)c(O)c1)[C@H](O)C2` [EC, (-)Epicatechin], in assay [2] (20 mg twice a day, 6 days), the “L/R sebum ratio at end of treatment” value amounted to 1.02±0.1. Moreover, the “L/R sebum ratio recovered after treatment stopped” value in assay [2] (10 days after stop) was determined as 1.21±0.01. Besides, the inhibition entry in the assay with 5α-reductase [3] is reported as “less than 25%”. Moreover, the inhibition at 1 µM in assay [4] (Table 10, 1 μM) is < 10%; in assay [6] (Table 10, 1 μM), < 10%; in assay [7] (Table 9, 1 μM), < 10%; in assay [9] (Table 9, 1 μM) it was < 10%. Besides, the inhibition at 3 µM in assay [4] (Table 10, 3 μM) is 13%; in assay [6] (Table 10, 3 μM), < 10%; in [7] (Table 9, 3 μM) it was 13%; in assay [9] (Table 9, 3 μM), < 10%. The inhibition at 10 µM in assay [4] (Table 10, 10 μM) is < 10%; in assay [5] (Table 8, 10 μM) it was < 10%; in assay [6] (Table 10, 10 μM), < 10%; in assay [7] (Table 9, 10 μM) it was < 10%; in assay [9] (Table 9, 10 μM) it was < 10%. Further, the inhibition at 30 µM in assay [4] (Table 10, 30 μM) was < 10%; in [6] (Table 10, 30 μM), < 10%; in assay [7] (Table 9, 30 μM) it was < 10%; in [9] (Table 9, 30 μM), < 10%. Moreover, the “activity on type 1 isozyme” value in assay [4] is listed as “not active”. Also, in assay [5] (Table 8, 5 μM), the inhibition at 5 µM was < 10%. The inhibition at 20 µM in assay [5] (Table 8, 20 μM) was < 10%. In assay [5] (Table 8, 40 μM), the inhibition at 40 µM is < 10%. Moreover, in [5] (Table 8, 200 μM), the inhibition at 200 µM was < 10%. In addition, the inhibition at 100 µM was < 10% in [6] (Table 10, 100 μM); 18% in assay [7] (Table 9, 100 μM); < 10% in [9] (Table 9, 100 μM). Besides, in assay [6], the “activity on type 2 isozyme” value is on record as “not active”. Besides, the “effect on body weight increase” value in [8] is recorded as “not EC or γ-LA”. Besides, in assay [8], the “effect on ventral prostate and preputial organ weights” value was “not EC”.

Regarding `Oc1cc(O)c2c(c1)O[C@H](c1cc(O)c(O)c(O)c1)[C@H](O)C2` [EGC, (-)Epigallocatechin], in [4], the “activity on type 1 isozyme” value was “not active”, the inhibition at 1 µM is < 10%, the inhibition at 3 µM is < 10% and the inhibition at 10 µM was < 10%. Also, in [4], the inhibition at 30 µM is < 10%. Also, in assay [5], the inhibition at 5 µM is < 10%, the inhibition at 10 µM is < 10%, the inhibition at 20 µM was < 10% and the inhibition at 40 µM was < 10%. In addition, the inhibition at 200 µM in assay [5] is < 10%. Besides, in assay [6], the “activity on type 2 isozyme” value is listed as “not active”, the inhibition at 1 µM was < 10%, the inhibition at 3 µM was < 10% and the inhibition at 10 µM was < 10%. Also, in [6], the inhibition at 30 µM was < 10% and the inhibition at 100 µM is < 10%. In assay [7], the inhibition at 1 µM was < 10%, the inhibition at 3 µM was < 10%, the inhibition at 10 µM is < 10% and the inhibition at 30 µM is < 10%. Also, in assay [7], the inhibition at 100 µM was determined as 23%. In assay [9], the inhibition at 1 µM was < 10%, the inhibition at 3 µM was < 10%, the inhibition at 10 µM was < 10% and the inhibition at 30 µM was found to be 13%. The inhibition at 100 µM in assay [9] was found to be 14%. The “effect on the body weight” value in assay [10] is “No significant effect”. In addition, the IC50 on Soybean lipoxygenase is 21 µM.

For the molecule `Cc1c(O[C@@H](C)c2ccc(CC(C)C)cc2)ccc(C(=O)Nc2ccccc2OCCCC(=O)O)c1C` [ONO-3805], the “5α-reductase inhibition” value in the assay on 5α-reductase [1] is recorded as 5α-reductase inhibitory activity.
